Data as given in the supplement of paper PMC10307832.

Key:
Test in all cases: relative viability (nuclei count vs DMSO), 5 days (fraction); higher = more cells survive
[1] = compound: CC(C)(C)c1cc(NC(=O)Nc2ccc(-c3cn4c(n3)sc3cc(OCCN5CCOCC5)ccc34)cc2)no1 [Quizartinib] + CC(=O)c1c(C)c2cnc(Nc3ccc(N4CCNCC4)cn3)nc2n(C2CCCC2)c1=O [Palbociclib] (partner 0.5 µM)
Method in brief: (§1)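 Lung cancer cell lines in 1536-well plates were dosed by pin tool the day after seeding, either with one drug alone or with a fixed anchor-drug dose plus five library-drug doses (not always all listed) in √10 steps. After 5 days, cells were fixed and their nuclei stained in one step (final 0.05% Triton X-100, 1% formaldehyde, 1 ug/ml Hoechst), then counted on 4× images. Relative viability is the nuclei count in treated wells divided by that in vehicle wells. Values are medians of duplicate plates.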

Quizartinib + Alpelisib = compound: CC(C)(C)c1cc(NC(=O)Nc2ccc(-c3cn4c(n3)sc3cc(OCCN5CCOCC5)ccc34)cc2)no1 [Quizartinib] + Cc1nc(NC(=O)N2CCC[C@H]2C(N)=O)sc1-c1ccnc(C(C)(C)C(F)(F)F)c1 [Alpelisib] (partner 2 µM)
Method in brief: as §1

YM155 + Pictilisib = compound: COCC[n+]1c2c(n(Cc3cnccn3)c1C)C(=O)c1ccccc1C2=O [YM155] + CS(=O)(=O)N1CCN(Cc2cc3nc(-c4cccc5[nH]ncc45)nc(N4CCOCC4)c3s2)CC1 [Pictilisib] (partner 1 µM)
Method in brief: as §1

YM155 + Pemetrexed = compound: COCC[n+]1c2c(n(Cc3cnccn3)c1C)C(=O)c1ccccc1C2=O [YM155] + Nc1nc2[nH]cc(CCc3ccc(C(=O)N[C@@H](CCC(=O)O)C(=O)O)cc3)c2c(=O)[nH]1 [Pemetrexed] (partner 0.2 µM)
Method in brief: as §1

| Cell Line | relative viability ([1]; first compound 0.001 µM) | relative viability ([1]; first compound 0.003162 µM) | relative viability ([1]; first compound 0.01 µM) | relative viability ([1]; first compound 0.03162 µM) | relative viability ([1]; first compound 0.1 µM) | relative viability (Quizartinib + Alpelisib; first compound 0.001 µM) | relative viability (Quizartinib + Alpelisib; first compound 0.003162 µM) | relative viability (Quizartinib + Alpelisib; first compound 0.01 µM) | relative viability (Quizartinib + Alpelisib; first compound 0.03162 µM) | relative viability (Quizartinib + Alpelisib; first compound 0.1 µM) | relative viability (YM155 + Pictilisib; first compound 0.002 µM) | relative viability (YM155 + Pictilisib; first compound 0.006325 µM) | relative viability (YM155 + Pictilisib; first compound 0.02 µM) | relative viability (YM155 + Pictilisib; first compound 0.06325 µM) | relative viability (YM155 + Pemetrexed; first compound 0.002 µM) | relative viability (YM155 + Pemetrexed; first compound 0.006325 µM) | relative viability (YM155 + Pemetrexed; first compound 0.02 µM) | relative viability (YM155 + Pemetrexed; first compound 0.06325 µM) |
| --- | --- | --- | --- | --- | --- | --- | --- | --- | --- | --- | --- | --- | --- | --- | --- | --- | --- | --- |
| 201T | 0.322 | 0.371 | 0.361 | 0.401 | 0.401 | 0.759 | 0.957 | 0.988 | 0.987 | 0.982 | 0.703 | 0.677 | 0.672 | 0.707 | 0.31 | 0.406 | 0.298 | 0.28 |
| A549 | – | – | – | – | – | 0.661 | 0.763 | 0.849 | – | 0.833 | 0.511 | 0.454 | 0.378 | 0.0793 | – | – | – | – |
| A-427 | 0.425 | 0.48 | 0.523 | 0.485 | 0.505 | 1.06 | 1 | 1.12 | 1.06 | 1.04 | 0.592 | 0.736 | 0.802 | 0.705 | 0.941 | 1.02 | 1 | 0.762 |
| ABC-1 | – | 0.71 | 0.842 | 0.769 | 0.823 | 0.951 | 0.996 | 1.02 | 0.497 | 1.12 | 0.637 | 0.594 | 0.341 | 0.197 | – | – | – | – |
| BEN | 0.388 | 0.427 | 0.544 | 0.472 | 0.503 | 0.919 | 0.863 | 1.05 | 0.795 | 0.969 | 0.53 | 0.644 | 0.627 | 0.578 | 0.63 | 0.839 | 0.934 | 0.908 |
| CAL-12T | 0.362 | 0.404 | 0.607 | 0.348 | 0.0629 | 1.03 | 1.08 | 1.29 | 0.467 | 1.47 | – | 0.566 | 0.557 | 0.392 | 1.23 | 1.22 | 1.11 | 0.569 |
| COR-L23 | 0.236 | 0.269 | 0.34 | 0.244 | 0.244 | 0.725 | 0.708 | 0.843 | 0.61 | 0.759 | 0.692 | 0.636 | 0.408 | 0.175 | 0.194 | 0.198 | 0.18 | 0.136 |
| COR-L 105 | 0.395 | 0.397 | 0.396 | – | 0.418 | 0.751 | 0.898 | 1.12 | 0.527 | 1.05 | 0.332 | 0.493 | 0.447 | 0.404 | 1.01 | 1.04 | 1 | 0.602 |
| Calu-6 | – | – | – | – | – | 0.92 | 0.915 | 1 | 0.761 | 0.947 | 0.879 | 0.605 | 0.169 | 0.13 | – | – | – | – |
| ChaGo-K-1 | – | 0.922 | 0.918 | 0.949 | 0.904 | – | – | – | – | – | 0.671 | 0.65 | 0.63 | 0.718 | 0.261 | 0.243 | 0.26 | 0.254 |
| EBC-1 | – | – | – | – | – | 0.664 | 0.708 | 0.89 | 0.915 | 0.812 | 0.436 | 0.345 | 0.459 | 0.339 | – | – | – | – |
